# From US20110105326A1, “Method for Enhancing the Rainfastness of Glyphosate” (BASF SE, priority 2008, published 2011)
# Assays:
# Format in all cases: in vivo
# [1] = system: Brachiaria decumbens (BRADE); assay: herbicidal action with/without simulated rainfall after treatment, Brachiaria decumbens; parameters: key: % damage vs untreated control; 0 = no damage, 100 = complete destruction; conditions: 180 g/ha lactofen, 1080 g/ha glyphosate; for herbicidal action against Brachiaria decumbens (BRADE): control without simulated rainfall, Example 14.1; for herbicidal action aaainst BRADE: simulated rainfall 30 min after treatment, Example 14.2; for herbicidal action against BRADE: simulated rainfall 6 hours after treatment, Example 14.3
# Description: (§1) The enhancement of the rainfastness of glyphosate was determined via the herbicidal activity of the mixture comprising glyphosate and the respective rainfastness enhancing herbicidal component B as well as of the single herbicidal components in relation to simulated rainfall at different time intervals.
# (§2) The evaluation of the damage caused by the method and the compositions the according to the present invention and the single herbicidal components was carried out using a scale from 0 to 100%, compared to the untreated control plots. Here, 0 means no damage and 100 means complete destruction of the plants of a respective weed or crop species.
# (§3) The application was performed with a fixed spayer system with air pressurization and with a tank spray volume of two liters. The speed of the spray device over the plants was adjusted for a spray volume of 200 I/ha. The spray device was a spray barr with four nozzles from the type Teejet XR 11002VS with a space of 50 cm between each nozzle.
# (§4) The application was performed at a weed stage of 6 to 8 leaves. After the application of the formulated herbicides the leaves were washed through rain of 20 mm using a fixed rain simulator system at following time interval: 15 min, 30 min, 1, 2, 3, 4 and 6 hours after treatment.
# [2] = system: Euphorbia heterophylla (EUPHO); assay: herbicidal action with/without simulated rainfall after treatment, Euphorbia heterophylla; parameters: key: % damage vs untreated control: 0 = no damage, 100 = complete destruction; conditions: 180 g/ha lactofen, 1080 g/ha glyphosate; for herbicidal action against Euphorbia heterophylla (EUPHO): control without simulated rainfall, Example 13.1
# Description: as §1, §2, §3, §4
# [3] = system: Echinochloa colonum (ECHCO); assay: herbicidal action with/without simulated rainfall after treatment, Echinochloa colonum; parameters: key: % damage vs untreated control; 0 = no damage, 100 = complete destruction; conditions: 180 g/ha lactofen, 1080 g/ha glyphosate; for herbicidal action against Echinochloa colonum (ECHCO): control without simulated rainfall, Example 12.1
# Description: as §1, §2, §3, §4
smiles,measurement,setting,value
"CCOC(=O)C(C)OC(=O)c1cc(Oc2ccc(C(F)(F)F)cc2Cl)ccc1[N+](=O)[O-] (stereo not drawn) [Lactofen, lactofen]",herbicidal action against Brachiaria decumbens (BRADE),[1]; 1 DAA,5
same,herbicidal action against Brachiaria decumbens (BRADE),[1]; 2 DAA,9
same,herbicidal action against Brachiaria decumbens (BRADE),[1]; 3 DAA,8.66
same,herbicidal action against Brachiaria decumbens (BRADE),[1]; 7 DAA,14
same,herbicidal action aaainst BRADE,[1]; 1 DAA,5
same,herbicidal action aaainst BRADE,[1]; 2 DAA,18.33
same,herbicidal action aaainst BRADE,[1]; 3 DAA,24.66
same,herbicidal action aaainst BRADE,[1]; 7 DAA,26
same,herbicidal action against BRADE,[1]; 1 DAA,9.66
same,herbicidal action against BRADE,[1]; 2 DAA,16
same,herbicidal action against BRADE,[1]; 3 DAA,22.66
same,herbicidal action against BRADE,[1]; 7 DAA,25.33
same,herbicidal action against Euphorbia heterophylla (EUPHO),[2]; 1 DAA,9.66
same,herbicidal action against Euphorbia heterophylla (EUPHO),[2]; 2 DAA,19
same,herbicidal action against Euphorbia heterophylla (EUPHO),[2]; 3 DAA,37
same,herbicidal action against Euphorbia heterophylla (EUPHO),[2]; 7 DAA,47
same,herbicidal action against EUPHO,"[2]; simulated rainfall 15 min after treatment, 1 DAA, Example 13.2",20.66
same,herbicidal action against EUPHO,"[2]; simulated rainfall 15 min after treatment, 2 DAA, Example 13.2",39
same,herbicidal action against EUPHO,"[2]; simulated rainfall 15 min after treatment, 3 DAA, Example 13.2",40
same,herbicidal action against EUPHO,"[2]; simulated rainfall 15 min after treatment, 7 DAA, Example 13.2",74.33
same,herbicidal action against EUPHO,"[2]; simulated rainfall 2 hours after treatment, 1 DAA, Example 13.3",18
same,herbicidal action against EUPHO,"[2]; simulated rainfall 2 hours after treatment, 2 DAA, Example 13.3",42
same,herbicidal action against EUPHO,"[2]; simulated rainfall 2 hours after treatment, 3 DAA, Example 13.3",39
same,herbicidal action against EUPHO,"[2]; simulated rainfall 2 hours after treatment, 7 DAA, Example 13.3",73.33
same,herbicidal action against Echinochloa colonum (ECHCO),[3]; 2 DAA,61.66
same,herbicidal action against Echinochloa colonum (ECHCO),[3]; 3 DAA,76.66
same,herbicidal action against Echinochloa colonum (ECHCO),[3]; 7 DAA,75.33
same,herbicidal action against ECHCO,"[3]; simulated rainfall 15 min after treatment, 2 DAA, Example 12.2",46.66
same,herbicidal action against ECHCO,"[3]; simulated rainfall 15 min after treatment, 3 DAA, Example 12.2",57.66
same,herbicidal action against ECHCO,"[3]; simulated rainfall 15 min after treatment, 7 DAA, Example 12.2",46.33
same,herbicidal action against ECHCO,"[3]; simulated rainfall 30 min after treatment, 2 DAA, Example 12.3",53
same,herbicidal action against ECHCO,"[3]; simulated rainfall 30 min after treatment, 3 DAA, Example 12.3",60
same,herbicidal action against ECHCO,"[3]; simulated rainfall 30 min after treatment, 7 DAA, Example 12.3",46
same,herbicidal action against ECHCO,"[3]; simulated rainfall 2 hours after treatment, 2 DAA, Example 12.4",48.33
same,herbicidal action against ECHCO,"[3]; simulated rainfall 2 hours after treatment, 3 DAA, Example 12.4",63.33
same,herbicidal action against ECHCO,"[3]; simulated rainfall 2 hours after treatment, 7 DAA, Example 12.4",39.33
